The target in assay [1] is T1, eotaxin-2 (CCL24) (Homo sapiens, UniProt O00175).
T1 construct: host or cells: E. coli
T1 sequence (O00175 27-119): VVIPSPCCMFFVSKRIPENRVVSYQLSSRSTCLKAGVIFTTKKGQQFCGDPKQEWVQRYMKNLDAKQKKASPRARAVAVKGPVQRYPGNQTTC
Nature of the assay: BIAcore: inhibition of Eotaxin-2 binding to immobilized heparin. To be noted: % relative to heparin concentration required to inhibit chemokine binding by 50%; heparin set at 100%. From the text:
(§1) The optical phenomenon of surface plasmon resonance is used to monitor physical interactions between molecules. Passing a solution of a potential protein ligand (e.g. IL-4, IL-5, eotaxin-1, eotaxin-2, IL-8 or MCP-1) over a sensor surface to which a target (e.g. heparin) is coupled monitors the real-time binding of protein ligands to the immobilized target. Detection is achieved by measuring refractive index changes very close to the sensor surface. When the refractive index is altered, the angle at which plasmon resonance occurs changes and this change directly correlates with the amount of protein interacting with the surface. A BIAcore 2000 is conveniently used. […]
(§2) Biotinylated heparin is immobilized on the biosensor chip. […] Solutions containing potential protein ligands of interest are injected over the sensor chip surface, and the binding is measured in real time (Fernig, In: Proteoglycan protocols, Ed. R. V. Iozzo, Humana Press, Totowa, N.J., USA, 2001). Baculovirus expressed recombinant human IL-4 (rhIL-4) and baculovirus expressed recombinant human IL-5 (rhIL-5) readily bind to heparin immobilized by this method (see PCT/AU2005/000551). […] Similarly, recombinant human eotaxin-1 (CCL11) expressed in E. coli binds readily to immobilized heparin and binding is specific as there is little eotaxin binding to sensor chips lacking heparin (see 30544601 PCT glycan151). […]
On the technique in general: SPR reads the build-up and loss of mass on a sensor chip optically.

In assay [2] the target is T2, IL-8 (CXCL8) (Homo sapiens, UniProt P10145).
T2 construct: host or cells: E. coli
T2 sequence (P10145 21-99): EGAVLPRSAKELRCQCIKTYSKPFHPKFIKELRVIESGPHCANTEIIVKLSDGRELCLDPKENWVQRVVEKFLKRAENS
Nature of the assay: BIAcore: inhibition of IL-8 binding to immobilized heparin. To be noted: % relative to heparin concentration required to inhibit chemokine binding by 50%; heparin set at 100%.
Description: as §1, §2

For assay [3], the target named is T3, MCP-1 (CCL2) (Homo sapiens, UniProt P13500).
T3 construct: host or cells: E. coli
T3 sequence (P13500 24-99): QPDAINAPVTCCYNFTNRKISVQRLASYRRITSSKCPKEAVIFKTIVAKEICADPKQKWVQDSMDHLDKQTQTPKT
Nature of the assay: BIAcore: inhibition of MCP-1 binding to immobilized heparin. To be noted: % relative to heparin concentration required to inhibit chemokine binding by 50%; heparin set at 100%.
Description: as §1, §2

Assay [4] concerns the target T4, recombinant human IL-4 (rhIL-4) (Homo sapiens, UniProt P05112).
T4 construct: host or cells: baculovirus expression system
T4 sequence (P05112 25-153): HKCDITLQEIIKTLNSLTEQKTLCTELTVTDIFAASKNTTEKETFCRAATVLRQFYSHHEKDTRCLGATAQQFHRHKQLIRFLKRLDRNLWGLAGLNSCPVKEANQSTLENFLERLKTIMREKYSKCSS
Nature of the assay: BIAcore: inhibition of IL-4 binding to a heparin chip. The conditions noted are these: End point heparin.
Description: as §1, §2

Assay [5] has as its target T5, recombinant human IL-5 (rhIL-5) (Homo sapiens, UniProt P05113).
T5 construct: host or cells: baculovirus expression system
T5 sequence (P05113 20-134): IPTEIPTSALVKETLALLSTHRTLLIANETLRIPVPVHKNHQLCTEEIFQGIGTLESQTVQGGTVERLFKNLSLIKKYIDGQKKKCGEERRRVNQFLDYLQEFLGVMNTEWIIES
Nature of the assay: BIAcore: inhibition of IL-5 binding to a heparin chip. To be noted: Biotin-heparin.
Description: as §1, §2

The target in assay [6] is T6, Human leukocyte elastase (Homo sapiens, UniProt P08246).
T6 sequence (P08246 30-267): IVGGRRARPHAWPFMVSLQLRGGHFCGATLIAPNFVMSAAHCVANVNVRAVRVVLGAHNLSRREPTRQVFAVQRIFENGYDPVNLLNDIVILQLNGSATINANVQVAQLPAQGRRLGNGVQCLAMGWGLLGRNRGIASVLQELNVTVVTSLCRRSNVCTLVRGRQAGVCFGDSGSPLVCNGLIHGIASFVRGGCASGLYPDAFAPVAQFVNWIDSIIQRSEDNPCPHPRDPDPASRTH
Nature of the assay: Human leukocyte elastase fluorogenic substrate assay. To be noted: elastase 5 nM/well, MeOSuc-Ala-Ala-Pro-Val-amido-methylcoumarin 20 μM/well, pH 7.4, 37° C., 60 minutes; read-out: Inhibition of Elastase activity IC50. The assay is classed as biochemical. As to the method:
Elastase is a protein that is a potential target for the treatment of COPD. Elastase assays were performed in 96-well plastic microplates for easy quantification by the fluorescent plate reader. Human leukocyte elastase (5 nM/well) was incubated in the presence ofrabsence of sulfated polysaccharides, with the fluorogenic substrate MeOSuc-Ala-Ala-Pro-Val-amido-methylcoumarin (20 μM/well) in a sodium phosphate buffer, pH 7.4. The mixture was incubated at 37° C. for 60 minutes before the reaction was stopped by the addition of 10 μL/well of […] acetic acid and the mixture transferred to a 96-well microplate with fluorescence being measured using an excitation wavelength of 355 nm and an emission wavelength of 460 nm. Various concentrations of inhibitors were used to allow the calculation of the concentration of anionic oligosaccharide conjugate required to inhibit enzyme activity by 50% (IC50). […] The linked xylopentaose series were not very effective inhibitors of elastase activity. In this assay heparin has an IC50 of approximately 200 nM (Table 6).

We go through 1 substance from US8597632B2, “Anionic oligosaccharide conjugates” (Glycan Biosciences LLC, priority 2008, dated 2013).

A word on the IC50: it is the concentration needed to halve the response being measured.

In the case of Heparin, in assay [1], the “Concentration for 50% inhibition of Eotaxin-2 binding to heparin chip, as % of heparin's” value was 100%. Also, the “Concentration for 50% inhibition of chemokine binding relative to heparin” value in assay [2] was determined as 100%. In addition, the “IC50 relative to heparin (% of heparin IC50)” value in assay [3] amounted to 100%. The IC50 is 3300 nM in assay [4], 37 nM in assay [5] and about 200 nM in assay [6].
